Each block holds one compound with its values, some of them ahead of it.
Legend:
[1] = tested on: LPS-challenged GSNOR−/− mice; assay: iNOS inhibition with 1400 W in LPS-challenged GSNOR−/− mice (endotoxic shock); assay type: in vivo, mouse
From the text: Blood was obtained by cardiac puncture after animals were euthanized by CO2 inhalation. The following serum chemistries were quantified by Antech Diagnostics (Farmingdale, N.Y.): alanine aminotransferase (ALT), aspartate aminotransferase (AST), creatine phosphokinase (CPK), urea nitrogen (BUN), creatinine, amylase, lipase, lactate dehydrogenase, alkaline phosphatase, total protein, globulin, albumin, calcium, magnesium, sodium, potassium, chloride, phosphorus, glucose, bilirubin, cholesterol, triglycerides, and osmolality.
Serum nitrate and nitrite were measured by capillary electrophoresis (CE) (Zunic et al., 1999) with a P/ACE MDQ system (Beckman) and by chemiluminescence (Sievers NO Analyzer). For CE, sera were diluted (1:10) with water and filtered through a 5 kDa cut-off membrane. Electrophoresis of the filtered samples and of nitrate and nitrite standards was carried out in a neutral capillary with Tris buffer (100 mM, pH 8.0), and monitored by absorbance at 214 nm. Nitrite concentrations are higher when measured by CE than by chemiluminescence (Zunic et al., 1999), but no relative differences between CE and chemiluminescence were observed.
LPS (E. coli, serotype 026:B6, Sigma) at a dosage of 150,000 endotoxin units/g (EU/g) was injected intraperitoneally into C57BL/6 and GSNOR^−/− mice. The mice were matched for age (11-12 weeks old), gender, and weight. LPS used for the males was lot number 050K4117 (15 million EU/mg) and LPS used for the females was lot number 101K4080 (3 million EU/mg). Studies were done in 45 additional male mice (22 wild-type and 23 GSNOR^−/−) administered lot number 101K4080. […] Phosphate-buffered saline (PBS, 20 μl/g) was injected in controls. In additional sets of experiments, LPS-challenged GSNOR^−/− mice were injected subcutaneously with the iNOS inhibitor 1400 W (1 μg/g, Cayman) or PBS (10 μl/g). Injections were performed at 6, 24 and 30 hours after LPS, or at 24, 42 and 48 hours after LPS.
Liver homogenates were prepared in lysis buffer (20 mM Tris-HCl, pH 8.0, 0.5 mM EDTA, 100 μM diethylenetriamine pentaacetic acid, 0.1% NP-40 and 1 mM phenylmethylsulfonyl fluoride). SNO levels in the total lysate and in a fraction filtered through a 5 kDa cut-off ultrafiltration membrane (low-mass SNO) were measured by photolysis-chemiluminescence (Liu et al., 2000b) and normalized for protein content.
Survival data on day 6 after LPS treatment were analyzed by both the χ^2 test and the Fisher exact test of contingency tables, with similar results. Blood pressure, SNO levels and serum chemistries were analyzed with the Student's t-test or with the nonparametric Mann-Whitney test.
Additional experiments were performed to establish the contribution of nitrosative stress to the pathogenesis of endotoxic shock. LPS-challenged GSNOR^−/− mice were treated with 1400 W, a selective iNOS inhibitor. Administration of 1400 W, initiated 6 h following LPS injection, reduced serum nitrate (i.e., NOS activity) by about 50% (FIG. 7A, P=0.015) and liver injury by about 90% (FIG. 7C, P=0.020). This improvement coincided with a reduction of liver SNO by about 90% (FIG. 7B). […] By comparison, PBS (volume control) had little effect (FIG. 7D vs. FIG. 3D). When administration of 1400 W was delayed for 24 h following LPS injection, this allowed SNOs to accumulate to hazardous levels, and the protection conferred by NOS inhibition was lost (3 out of 5 female GSNOR^−/− mice died).

[2] = tested on: animal models of endotoxic shock; conditions: literature (Feihl et al., 2001; Ou et al., 1997); cited from earlier work
cardiac β-ARs = assay: Chronic isoproterenol-induced cardiac hypertrophy and β-AR down-regulation in mice (mini-osmotic pump); assay type: in vivo, mouse
Description: FIGS. 13A-13C: Results of Cardiac Studies. FIG. 13A: Heart weight to body weight ratio (hw:bw, mg:g) (n=10); FIG. 13B: Cardiac β-AR density (BMax, fmol/mg protein (n=5); FIG. 13C: Cardiac PARK protein expression levels (n=4), in mice following mini-osmotic pump implantation and treatment for 7 days with either PBS, isoproterenol (ISO) (30 mg/kg/day), GSNO (10 mg/kg/day) or a combination of ISO and GSNO. All data expressed as mean (+/−SEM) (*P<0.05 versus PBS treated mice, +P<0.05 versus ISO treated mice, unpaired t test).
One well established model of experimental cardiac hypertrophy in the mouse involves the chronic administration of the β-AR agonist, isoproterenol. This treatment leads to a functional uncoupling and down-regulation of cardiac β-ARs and the development of a significant increase in wall mass. Experiments were performed to study the effects of GSNO on the development of cardiac hypertrophy and its ability to alter the pattern of β-AR down-regulation associated with chronic isoproterenol stimulation.
Whole cell and membrane receptor/ligand binding was performed to assess functional affinity of receptor for ligand and overall receptor density as described previously. In particular, whole cell and membrane binding was assessed for cells treated with multiple concentrations of NO/SNO in the presence and absence of desensitizing conditions (agonist pre-stimulation).
In contrast, the combined infusion of GSNO with ISO maintained P receptor density (FIG. 13B) because it inhibits PARK (GRK2) (FIGS. 12A-12B). Therefore, inhibitors of GSNOR alone or in combination with β-agonists could be used to improve heart failure, or other vascular disorders such as hypertension and asthma.

GRK2 [3] = target: T1, GRK2 (Homo sapiens, UniProt P25098); assay: GRK2-mediated phosphorylation of purified β2-AR in a reconstituted system; assay type: biochemical; conditions: cysNO 500, 50, 5 μM; isoproterenol (10 μM) stimulated; β2-AR reconstituted in synthetic vesicles
T1 sequence (P25098 1-689): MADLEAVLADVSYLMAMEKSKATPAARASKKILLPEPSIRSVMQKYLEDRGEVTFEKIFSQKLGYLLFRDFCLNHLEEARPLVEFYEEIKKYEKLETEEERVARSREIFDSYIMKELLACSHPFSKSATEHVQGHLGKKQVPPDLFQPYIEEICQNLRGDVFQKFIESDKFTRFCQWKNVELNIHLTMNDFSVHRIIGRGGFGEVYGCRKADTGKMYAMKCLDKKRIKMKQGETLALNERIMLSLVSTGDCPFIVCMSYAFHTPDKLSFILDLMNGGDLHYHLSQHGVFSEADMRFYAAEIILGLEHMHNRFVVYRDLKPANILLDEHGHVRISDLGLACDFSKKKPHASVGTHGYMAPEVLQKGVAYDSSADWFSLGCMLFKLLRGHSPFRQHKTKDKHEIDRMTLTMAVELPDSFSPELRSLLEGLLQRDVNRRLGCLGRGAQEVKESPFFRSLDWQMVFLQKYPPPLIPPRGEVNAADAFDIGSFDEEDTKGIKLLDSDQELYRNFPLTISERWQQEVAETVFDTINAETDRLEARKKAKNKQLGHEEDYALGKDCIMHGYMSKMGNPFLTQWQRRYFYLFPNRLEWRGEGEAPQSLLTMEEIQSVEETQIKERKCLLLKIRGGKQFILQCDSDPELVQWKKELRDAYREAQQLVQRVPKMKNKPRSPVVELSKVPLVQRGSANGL
Description: (§1) FIGS. 11A-11B. Results from GRK studies. FIG. 11A. Representative gel from experiments examining the effect of cysNO (500, 50, and 5 μM) on isoproterenol (10 μM) stimulated GRK2 mediated receptor phosphorylation using purified β2-AR reconstituted in synthetic vesicles and purified GRK2. FIG. 11B: Representative gel from experiments examining the effect of cysNO (5, 50, and 500 μM) light stimulated GRK2 mediated phosphorylation of rhodopsin using purified bovine rod outer segments and purified GRK2.
(§2) Previous data provided strong evidence supporting the hypothesis that NO prevented GRK (G protein-coupled receptor kinase)-mediated phosphorylation of the β2-AR (adrenergic receptor). Further experiments were required to determine whether NO was acting directly on the receptor or the GRKs. To elucidate the site of NO action, its effect was tested on GRK2-mediated phosphorylation of the β2-AR and on a soluble peptide substrate using purified proteins in a reconstituted system.

GRK2 [4] = target: T1, GRK2; assay: GRK2-mediated phosphorylation of rhodopsin from purified bovine rod outer segments; assay type: biochemical; conditions: cysNO 5, 50, 500 μM, light stimulated
Description: as §1, §2

GRK2 [5] = target: T1, GRK2; assay: Purified GRK2-mediated in vitro phosphorylation of a soluble peptide substrate (RRREEEEESAAA); assay type: biochemical; conditions: 500, 50, and 5 μM; n=2; P<0.05
Description: FIGS. 12A-12B: Effect of cysNO (A: 500, 50, and 5 μM) and GSNO (B: 500, 50, and 5 μM) on purified GRK2 mediated in vitro phosphorylation of a soluble peptide substrate (RRREEEEESAAA; SEQ ID NO:30) (n=2; *P<0.05).
To confirm this, experiments were performed to examine the capacity of SNOs to inhibit purified GRK2-mediated phosphorylation of a synthetic peptide substrate (RRREEEEESAAA; SEQ ID NO:30).

[6] = administration of 1400 W delayed for 24 h following LPS injection
[7] = ISO infused for 7 days using a pump (30 mg/kg/day)
[8] = GSNO 10 mg/kg/day via osmotic mini-pump with ISO 30 mg/kg/day

Structure (SMILES): CC(=N)NCc1cccc(CN)c1 [1400 W, N-[3-(aminomethyl)benzyl]acetamidine]
- survival rate of LPS-challenged GSNOR−/− mice ([1]; 1400 W initiated 6 h following LPS injection, P=0.03): significantly improved
- reduction of serum nitrate (i.e., NOS activity) ([1]; GSNOR−/− mice, 1400 W 1 μg/g s.c. initiated 6 h following LPS injection, P=0.015): about 50%
- reduction of liver SNO ([1]; GSNOR−/− mice, 1400 W initiated 6 h following LPS injection): about 90%
- reduction of liver injury (serum ALT) ([1]; GSNOR−/− mice, 1400 W initiated 6 h following LPS injection, P=0.020): about 90%
- tissue injury in kidney, pancreas, and muscle (serum markers) ([1]; GSNOR−/− mice, 48 h after LPS treatment, 1400 W initiated 6 h following LPS): reduced
- female GSNOR−/− mice that died [1, 6]: 3 out of 5
- protection conferred by NOS inhibition [1, 6]: lost
- effect on injury in animal models of endotoxic shock [2]: either have little effect or worsen injury

Structure (SMILES): CC(C)NCC(O)c1ccc(O)c(O)c1 (stereo not shown) [isoproterenol]
- cardiac weight (cardiac β-ARs; [7]): increases
- β adrenergic receptor levels (cardiac β-ARs; [7]): decreased
- βARK (GRK2) expression (cardiac β-ARs; [7]): increased

Structure (SMILES): CC(=N)NCCCC[C@H](N)C(=O)O [N-(1-iminoethyl)-L-lysine, N6-(1-Iminoethyl)-L-lysine]
- effect on injury in animal models of endotoxic shock [2]: either have little effect or worsen injury

- GRK2-mediated phosphorylation of the purified β2-AR (GRK2 [3]): significantly decreased
- GRK2-mediated phosphorylation of rhodopsin (GRK2 [4]): significantly decreased
- GRK2 mediated phosphorylation of the synthetic peptide substrate (GRK2 [5]): significantly inhibited
Structure (SMILES): N[C@@H](CSN=O)C(=O)O [cysNO]

- GRK2 mediated phosphorylation of the synthetic peptide substrate (GRK2 [5]): significantly inhibited
Structure (SMILES): N[C@@H](CCC(=O)N[C@@H](CSN=O)C(=O)NCC(=O)O)C(=O)O [GSNO, S-nitrosoglutathione]
- isoproterenol-stimulated changes in heart weight to body weight ratio (cardiac β-ARs; [8]): no effect
- β-AR down-regulation (cardiac β-ARs; [8]): significantly decreased
- β receptor density (cardiac β-ARs; combined infusion of GSNO with ISO): maintained

Source: patent US20080206738A1, “Compositions and methods for modulating S-nitrosoglutathione reductase” (Duke University, priority 2003, published 2008)
